Activity calls are given as the source filed them. No cut-off for these calls is given here.
Columns and labels:
Pseudomonas aeruginosa [1] = experiment: Antibiofilm activity against Pseudomonas aeruginosa PAO1 assessed as inhibition of biofilm formation incubated for 24 hrs by crystal violet staining based analysis; format: functional, organism-based; settings: PAO1, 24 h
Pseudomonas aeruginosa [2] = experiment: Antibacterial activity against Pseudomonas aeruginosa PAO1 assessed as inhibition of bacterial growth incubated for 24 hrs by CLSI protocol based method; format: functional
Pseudomonas aeruginosa [3] = experiment: Induction of Fe3+ chelating activity in Pseudomonas aeruginosa PAO1 assessed as increase in pyochelin production at 2.5 to 50 uM incubated for 24 hrs by fluorescence microplate reader; settings: dose 2.5-50 µM
Pseudomonas aeruginosa [4] = experiment: Induction of Fe3+ chelating activity in Pseudomonas aeruginosa PAO1 assessed as increase in pyoverdine production at 2.5 to 50 uM incubated for 24 hrs by fluorescence microplate reader; settings: dose 2.5-50 µM
Pseudomonas aeruginosa [5] = experiment: Antibacterial activity against Pseudomonas aeruginosa PAO1 assessed as bacterial survival rate at 1/2 MIC incubated for 24 hrs by LB agar plate method relative to control; format: functional
Pseudomonas aeruginosa [6] = experiment: Antibacterial activity against Pseudomonas aeruginosa PAO1 infected in Caenorhabditis elegans assessed as reduction in worm mortality by measuring survival at 1/2 MIC by bright-field microscopic analysis (reference value: 24 hrs); format: functional
[7] = Metal chelating activity assessed as Fe3+ chelation by measuring iron chelation constant by fluorescence competition assay
[8] = Inhibition of quorum sensing system in wildtype Pseudomonas aeruginosa PAO1 assessed as inhibition of rhamnolipid production incubated for 24 hrs by absorbance based microtiter plate reader analysis
[9] = Cytotoxicity against African green monkey Vero cells assessed as reduction in cell viability incubated for 24 hrs by MTT assay; format: toxicity, cell-based; settings: chlorocebus sabaeus
[10] = Inhibition of quorum sensing system in wildtype Pseudomonas aeruginosa PAO1 assessed as inhibition of elastase production incubated for 24 hrs by elastin-congo red dye based absorbance assay
[11] = Toxicity in Caenorhabditis elegans assessed as effect on survival at 100 uM measured at 48 hrs by bright-field microscopic analysis
[12] = Hemolytic activity in rabbit erythrocytes assessed as hemolysis rate at 200 uM incubated for 2 hrs by microplate reader analysis (reference value: 100 %); format: toxicity, cell-based, Oryctolagus cuniculus, Erythrocyte; settings: read-out: Activity
[13] = Inhibition of quorum sensing system in wildtype Pseudomonas aeruginosa PAO1 assessed as inhibition of pyocyanin production incubated for 24 hrs by absorbance based analysis
Pseudomonas aeruginosa [14] = experiment: Antibacterial activity against Pseudomonas aeruginosa PAO1 assessed as inhibition of bacterial growth at 0.1 to 50 uM measured upto 24 hrs by CLSI protocol based method; format: functional, organism-based; settings: dose 0.1-50 µM
Pseudomonas aeruginosa [15] = experiment: Antibiofilm activity against Pseudomonas aeruginosa PAO1 assessed as decrease in biofilm formation incubated for 24 hrs by LIVE/DEAD BacLight staining based 3D confocal laser scanning microscopy; format: functional, organism-based; settings: dose 1-10 µM

Compound | IC50 (Pseudomonas aeruginosa [1]) [µM] | MIC (Pseudomonas aeruginosa [2]) [µM] | other results
Cc1cc(=O)c(O)c(CNCCCCCCCNc2ccnc3ccccc23)n1C | 13.2 | ≥ 512 | –
Cc1cc(=O)c(O)c(CNCCCCCCCCNc2ccnc3cc(Br)ccc23)n1C | > 50 | ≥ 512 | –
Cc1cc(=O)c(O)c(CNCCNc2ccnc3ccccc23)n1C | > 50 | ≥ 512 | –
Cc1cc(=O)c(O)c(CNCCCCCCCCNc2ccnc(Cl)c2)n1C | > 50 | ≥ 512 | –
Cn1cc(O)c(=O)cc1CNCCCCCCCCNc1ccnc2ccccc12 | > 50 | ≥ 512 | –
Cc1cc(=O)c(O)c(CNCCCCCCCCNc2ccnc3ccc(Cl)cc23)n1C | 18.3 | ≥ 512 | –
Cc1cc(=O)c(OCc2ccccc2)c(C(=O)NCCCCCCCCNc2ccnc3cc(Cl)ccc23)n1C | > 50 | ≥ 512 | Activity (Pseudomonas aeruginosa [3]): Active; Activity (Pseudomonas aeruginosa [4]): Active
Cc1cc(=O)c(O)c(CNCCCCCCCCCCNc2ccnc3ccccc23)n1C | 32.6 | ≥ 512 | –
Cc1cc(=O)c(O)c(CNCCCCCCCCNc2ccnc3ccccc23)n1C | 8.1 | ≥ 512 | –
Cn1cc(O)c(=O)cc1CNCCCCCCCCNc1ccnc2cc(Cl)ccc12 | > 50 | ≥ 512 | –
CCn1c(C)cc(=O)c(O)c1CNCCCCCCCCNc1ccnc2ccccc12 | > 50 | ≥ 512 | –
POLYMYXIN B | – | – | Survival (Pseudomonas aeruginosa [5]): 18%; Survival (Pseudomonas aeruginosa [6]): 88 h
Cc1cc(=O)c(O)c(CNCCCCNc2ccnc3ccccc23)n1C | > 50 | ≥ 512 | –
Cc1cc(=O)c(O)cn1CCCCCCCCNc1ccnc2cc(Cl)ccc12 | 25.6 | ≥ 512 | –
Cc1cc(=O)c(O)c(CNCCCCCCCCNc2ccncc2)n1C | > 50 | ≥ 512 | –
CCCCCn1c(C)cc(=O)c(O)c1CNCCCCCCCCNc1ccnc2ccccc12 | 23.6 | ≥ 512 | –
Cc1cc(=O)c(O)c(CNCCCCCCNc2ccnc3cc(Cl)ccc23)n1C | 18.2 | ≥ 512 | –
Cc1cc(=O)c(O)c(C(=O)NCCCCCCCCNc2ccnc3ccccc23)n1C | 13 | ≥ 512 | –
CCCCCCCc1[nH]c2ccccc2c(=O)c1O | – | – | Activity (Pseudomonas aeruginosa [4]): Active
NC[C@H]1O[C@H](O[C@H]2[C@H](O)[C@@H](O[C@H]3O[C@H](CO)[C@@H](O)[C@H](N)[C@H]3O)[C@H](N)C[C@@H]2N)[C@H](N)C[C@@H]1O [TOBRAMYCIN] | – | – | Survival (Pseudomonas aeruginosa [5]): ~20%; Survival (Pseudomonas aeruginosa [6]): 72 h
Cc1cc(=O)c(O)c(CNCCCCCCCCNc2ccnc3c(Cl)cccc23)n1C | > 50 | ≥ 512 | –
Cc1cc(=O)c(O)c(CNCCCCCNc2ccnc3ccccc23)n1C | > 50 | ≥ 512 | –
COc1ccc2c(NCCCCCCCCNCc3c(O)c(=O)cc(C)n3C)ccnc2c1 | 16 | ≥ 512 | –

Compound | IC50 (Pseudomonas aeruginosa [1]) [µM] | MIC (Pseudomonas aeruginosa [2]) [µM] | other results
CCCCn1c(C)cc(=O)c(O)c1CNCCCCCCCCNc1ccnc2cc(Cl)ccc12 | 14.1 | ≥ 512 | –
Cc1cc(=O)c(O)c(CNCCCCCCNc2ccnc3ccccc23)n1C | 16.2 | ≥ 512 | –
COc1ccc2c(NCCCCCCCCNC(=O)c3c(O)c(=O)cc(C)n3C)ccnc2c1 | > 50 | ≥ 512 | –
CCCCn1c(C)cc(=O)c(O)c1CNCCCCCCCCNc1ccnc2ccccc12 | 8.9 | ≥ 512 | –
Cc1cc(=O)c(O)c(CNCCCCCCCCNc2ccnc3cccc(Cl)c23)n1C | > 50 | ≥ 512 | –
Cc1c(O)c(=O)ccn1C | – | – | pFe3+ [7]: 21.7
Cc1cc(=O)c(OCc2ccccc2)c(CNCCCCCCCCNc2ccnc3cc(Cl)ccc23)[nH]1 | > 50 | ≥ 512 | –
CCCCCn1c(C)cc(=O)c(O)c1CNCCCCCCCCNc1ccnc2cc(Cl)ccc12 | > 50 | ≥ 512 | –
Cc1cc(=O)c(O)cn1CCCCCCCCNc1ccnc2ccccc12 | > 50 | ≥ 512 | –
O=c1cc(CNCCCCCCCCNc2ccnc3cc(Cl)ccc23)n(O)cc1O | > 50 | ≥ 512 | –
O=c1cc(CNCCCCCCCCNc2ccnc3ccccc23)n(O)cc1O | > 50 | ≥ 512 | –
NCCCCCCCCNc1ccnc2cc(Cl)ccc12 | > 50 | ≥ 512 | IC50 [8]: > 50 µM; CC50 at 24 h [9]: 189 µM; IC50 [10]: 43.5 µM; Activity [11]: Toxic; hemolysis at 2 h, 200 µM [12]: < 1.5%; IC50 [13]: > 50 µM; Activity (Pseudomonas aeruginosa [3]): Active; Activity (Pseudomonas aeruginosa [4]): Active
Cc1cc(=O)c(O)c(CNCCCNc2ccnc3ccccc23)n1C | > 50 | ≥ 512 | –
COCCn1c(C)cc(=O)c(O)c1CNCCCCCCCCNc1ccnc2ccccc12 | > 50 | ≥ 512 | –
Cc1cc(=O)c(O)c(CNCCCCCCCNc2ccnc3cc(Cl)ccc23)n1C | 9.4 | ≥ 512 | –
Cc1cc(=O)c(O)c(CNCCCCCCCCNc2ccnc3cc(Cl)ccc23)n1C | 5.4 | ≥ 512 | Activity (Pseudomonas aeruginosa [14]): inactive; IC50 [8]: > 50 µM; IC50 [10]: 30.9 µM; IC50 [13]: 23.7 µM; Activity (Pseudomonas aeruginosa [15]): Dose-Dependent Effect
Cc1cc(=O)c(O)c(CNCCCCCCCCNc2ccnc3cc(F)ccc23)n1C | > 50 | ≥ 512 | –
COc1ccc2c(NCCCCCCCCNCc3cc(=O)c(O)cn3C)ccnc2c1 | > 50 | ≥ 512 | –
CCCn1c(C)cc(=O)c(O)c1CNCCCCCCCCNc1ccnc2ccccc12 | > 50 | ≥ 512 | –
CC[C@H]1OC(=O)[C@H](C)[C@@H](O[C@H]2C[C@@](C)(OC)[C@@H](O)[C@H](C)O2)[C@H](C)[C@@H](O[C@@H]2O[C@H](C)C[C@H](N(C)C)[C@H]2O)[C@](C)(O)C[C@@H](C)CN(C)[C@H](C)[C@@H](O)[C@]1(C)O [AZITHROMYCIN] | 6.6 | – | –
Cc1cc(=O)c(O)c(CNCCCCCCCCNc2ccnc3cc(C(F)(F)F)ccc23)n1C | 12.9 | ≥ 512 | –
Cc1cc(=O)c(O)c(CNCCCCCCCCCCNc2ccnc3cc(Cl)ccc23)n1C | > 50 | ≥ 512 | –
